How the values were obtained:
[1] = system: bicistronic HCV replicon (replicon RNA, GenBank Accession No. AJ242654); experiment: HCV Replicon Assay; format: cell-based; details: Hepatitis C virus, 72 h, read-out: Replicon IC50

| Compound | melting point | IC50 [1] |
| --- | --- | --- |
| CCc1cc2c(cc1F)c(C(N)=O)c(-c1ccc(S(=O)(=O)N[C@@H](C)C(F)(F)F)cn1)n2-c1ccc(Cl)cc1 [compound 1020, 1-(4-chlorophenyl)-6-ethyl-5-fluoro-2-(5-{[(2S)-1,1,1-trifluoropropan-2-yl]sulfamoyl}pyridin-2-yl)-1H-indole-3-carboxamide] | 240 to 247 °C | < 500 nM |
| CCc1cc2c(cc1F)c(C(N)=O)c(-c1ccc(S(=O)(=O)N[C@@H](C)C(F)(F)F)cn1)n2-c1ccc(C)cc1 [compound 1021, 6-ethyl-5-fluoro-1-(4-methylphenyl)-2-(5-{[(2S)-1,1,1-trifluoropropan-2-yl]sulfamoyl}pyridin-2-yl)-1H-indole-3-carboxamide] | 228 to 233 °C | < 500 nM |
| CCc1cc2c(cc1F)c(C(N)=O)c(-c1ccc(S(=O)(=O)N[C@@H](C)C(F)(F)F)cn1)n2-c1ccc(C(F)(F)F)cc1 [compound 1022, 6-ethyl-5-fluoro-1-[4-(trifluoromethyl)phenyl]-2-(5-{[(2S)-1,1,1-trifluoropropan-2-yl]sulfamoyl}pyridin-2-yl)-1H-indole-3-carboxamide] | 253 to 259 °C | < 500 nM |
| CCc1cc2c(cc1F)c(C(N)=O)c(-c1ccc(S(=O)(=O)N[C@@H](C)C(F)(F)F)cn1)n2-c1cccc(Cl)c1 [compound 1027, 1-(3-chlorophenyl)-6-ethyl-5-fluoro-2-(5-{[(2S)-1,1,1-trifluoropropan-2-yl]sulfamoyl}pyridin-2-yl)-1H-indole-3-carboxamide] | 200 to 205 °C | < 500 nM |
| CCc1cc2c(cc1F)c(C(=O)O)c(-c1ncc(NS(=O)(=O)C(C)(C)C)cn1)n2C1CCCCC1 [compound 1028, 2-{5-[(tert-butylsulfonyl)amino]pyrimidin-2-yl}-1-cyclohexyl-6-ethyl-5-fluoro-1H-indole-3-carboxylic acid] | 236 to 237 °C | 2000 to 5000 nM |
| Cc1cc2c(cc1F)c(C#N)c(-c1ccc(S(=O)(=O)N[C@@H](C)C(F)(F)F)cn1)n2-c1c[nH]nc1C [compound 1030, 6-[3-cyano-5-fluoro-6-methyl-1-(3-methyl-1H-pyrazol-4-yl)-1H-indol-2-yl]-N-[(2S)-1,1,1-trifluoropropan-2-yl]pyridine-3-sulfonamide] | 238.8 to 244 °C | 500 to 2000 nM |
| Cc1ccc(-n2c(-c3ccc(S(=O)(=O)N[C@@H](C)C(F)(F)F)cn3)c(C#N)c3cc(F)c(C)cc32)s1 [compound 1031, 6-[3-cyano-5-fluoro-6-methyl-1-(5-methylthiophen-2-yl)-1H-indol-2-yl]-N-[(2S)-1,1,1-trifluoropropan-2-yl]pyridine-3-sulfonamide] | 246.8 to 249.4 °C | < 500 nM |
| Cc1cc2c(cc1F)c(C#N)c(-c1ccc(S(=O)(=O)N[C@@H](C)C(F)(F)F)cn1)n2-c1ccc(Cl)s1 [compound 1032, 6-[1-(5-chlorothiophen-2-yl)-3-cyano-5-fluoro-6-methyl-1H-indol-2-yl]-N-[(2S)-1,1,1-trifluoropropan-2-yl]pyridine-3-sulfonamide] | 244.8 to 247.4 °C | < 500 nM |
| Cc1cc2c(cc1F)c(C#N)c(-c1ccc(S(=O)(=O)N[C@@H](C)C(F)(F)F)cn1)n2-c1ccc(C#N)s1 [compound 1033, 6-[3-cyano-1-(5-cyanothiophen-2-yl)-5-fluoro-6-methyl-1H-indol-2-yl]-N-[(2S)-1,1,1-trifluoropropan-2-yl]pyridine-3-sulfonamide] | 182 to 184.6 °C | < 500 nM |
| Cc1cc2c(cc1F)c(C#N)c(-c1ccc(S(=O)(=O)N[C@@H](C)C(F)(F)F)cn1)n2-c1ccc(S(N)(=O)=O)s1 [compound 1034, 6-[3-cyano-5-fluoro-6-methyl-1-(5-sulfamoylthiophen-2-yl)-1H-indol-2-yl]-N-[(2S)-1,1,1-trifluoropropan-2-yl]pyridine-3-sulfonamide] | 131.6 to 137.7 °C | 500 to 2000 nM |
| CC(=O)c1ccc(-n2c(-c3ccc(S(=O)(=O)N[C@@H](C)C(F)(F)F)cn3)c(C#N)c3cc(F)c(C)cc32)s1 [compound 1035, 6-[1-(5-acetylthiophen-2-yl)-3-cyano-5-fluoro-6-methyl-1H-indol-2-yl]-N-[(2S)-1,1,1-trifluoropropan-2-yl]pyridine-3-sulfonamide] | 235.6 to 238.7 °C | 500 to 2000 nM |
| CCc1cc2c(cc1F)c(C(N)=O)c(-c1cnc(NS(=O)(=O)C(C)(C)C)nc1)n2C1CCCCC1 [compound 1036, 2-{2-[(tert-butylsulfonyl)amino]pyrimidin-5-yl}-1-cyclohexyl-6-ethyl-5-fluoro-1H-indole-3-carboxamide] | > 300 °C | 2000 to 5000 nM |
| CCc1cc2c(cc1F)c(C(N)=O)c(-c1ccc(NS(=O)(=O)C(C)(C)C)nc1)n2C1CCCCC1 [compound 1037, 2-{6-[(tert-butylsulfonyl)amino]pyridin-3-yl}-1-cyclohexyl-6-ethyl-5-fluoro-1H-indole-3-carboxamide] | 297 to 299 °C | < 500 nM |
| Cc1csc(-n2c(-c3ccc(S(=O)(=O)N[C@@H](C)C(F)(F)F)cn3)c(C#N)c3cc(F)c(C)cc32)n1 [compound 1038, 6-[3-cyano-5-fluoro-6-methyl-1-(4-methyl-1,3-thiazol-2-yl)-1H-indol-2-yl]-N-[(2S)-1,1,1-trifluoropropan-2-yl]pyridine-3-sulfonamide] | 206.3 to 211.7 °C | < 500 nM |
| CCc1cc2c(cc1F)c(C(N)=O)c(-c1ccc(S(=O)(=O)N[C@@H](C)C(F)(F)F)cn1)n2-c1ccncc1 [compound 1045, 6-ethyl-5-fluoro-1-(pyridin-4-yl)-2-(5-{[(2S)-1,1,1-trifluoropropan-2-yl]sulfamoyl}pyridin-2-yl)-1H-indole-3-carboxamide] | 219 to 224 °C | < 500 nM |
| CCc1cc2c(cc1F)c(C(N)=O)c(-c1ccc(S(=O)(=O)N[C@@H](C)C(F)(F)F)cn1)n2-c1cccnn1 [compound 1046, 6-ethyl-5-fluoro-1-(pyridazin-3-yl)-2-(5-{[(2S)-1,1,1-trifluoropropan-2-yl]sulfamoyl}pyridin-2-yl)-1H-indole-3-carboxamide] | 206 to 212 °C | 2000 to 5000 nM |
| CCc1cc2c(cc1F)c(C(N)=O)c(-c1ccc(S(=O)(=O)N[C@@H](C)C(F)(F)F)cn1)n2-c1ncc(C)cn1 [compound 1047, 6-ethyl-5-fluoro-1-(5-methylpyrimidin-2-yl)-2-(5-{[(2S)-1,1,1-trifluoropropan-2-yl]sulfamoyl}pyridin-2-yl)-1H-indole-3-carboxamide] | 257 to 261 °C | 500 to 2000 nM |
| CCc1cc2c(cc1F)c(C(N)=O)c(-c1ccc(S(=O)(=O)N[C@@H](C)C(F)(F)F)cn1)n2-c1cc(Cl)ccn1 [compound 1048, 1-(4-chloropyridin-2-yl)-6-ethyl-5-fluoro-2-(5-{[(2S)-1,1,1-trifluoropropan-2-yl]sulfamoyl}pyridin-2-yl)-1H-indole-3-carboxamide] | 200 to 204 °C | 500 to 2000 nM |
| CC(=O)c1sccc1-n1c(-c2ccc(S(=O)(=O)N[C@@H](C)C(F)(F)F)cn2)c(C#N)c2cc(F)c(C)cc21 [compound 1055, 6-[1-(2-acetylthiophen-3-yl)-3-cyano-5-fluoro-6-methyl-1H-indol-2-yl]-N-[(2S)-1,1,1-trifluoropropan-2-yl]pyridine-3-sulfonamide] | 208.7 to 212.4 °C | 500 to 2000 nM |
| Cc1cc2c(cc1F)c(C#N)c(-c1ccc(S(=O)(=O)N[C@@H](C)C(F)(F)F)cn1)n2-c1cscc1C [compound 1056, 6-[3-cyano-5-fluoro-6-methyl-1-(4-methylthiophen-3-yl)-1H-indol-2-yl]-N-[(2S)-1,1,1-trifluoropropan-2-yl]pyridine-3-sulfonamide] | 223.2 to 227.1 °C | < 500 nM |
| Cc1cc2c(cc1F)c(C#N)c(-c1ccc(S(=O)(=O)N[C@@H](C)C(F)(F)F)cn1)n2-c1ccsc1Cl [compound 1057, 6-[1-(2-chlorothiophen-3-yl)-3-cyano-5-fluoro-6-methyl-1H-indol-2-yl]-N-[(2S)-1,1,1-trifluoropropan-2-yl]pyridine-3-sulfonamide] | 226.7 to 231.8 °C | < 500 nM |
| Cc1cc(-n2c(-c3ccc(S(=O)(=O)N[C@@H](C)C(F)(F)F)cn3)c(C#N)c3cc(F)c(C)cc32)cs1 [compound 1058, 6-[3-cyano-5-fluoro-6-methyl-1-(5-methylthiophen-3-yl)-1H-indol-2-yl]-N-[(2S)-1,1,1-trifluoropropan-2-yl]pyridine-3-sulfonamide] | 210.5 to 215.2 °C | < 500 nM |
| CCc1cc2c(cc1F)c(C#N)c(-c1ccc(S(=O)(=O)N[C@@H](C)C(F)(F)F)cn1)n2-c1ccc(F)c(F)c1 [compound 1061, 6-[3-cyano-1-(3,4-difluorophenyl)-6-ethyl-5-fluoro-1H-indol-2-yl]-N-[(2S)-1,1,1-trifluoropropan-2-yl]pyridine-3-sulfonamide] | 229 to 235 °C | < 500 nM |
| CCc1cc2c(cc1F)c(C#N)c(-c1ccc(S(=O)(=O)N[C@@H](C)C(F)(F)F)cn1)n2-c1ccc(F)c(Cl)c1 [compound 1062, 6-[1-(3-chloro-4-fluorophenyl)-3-cyano-6-ethyl-5-fluoro-1H-indol-2-yl]-N-[(2S)-1,1,1-trifluoropropan-2-yl]pyridine-3-sulfonamide] | 228 to 232 °C | < 500 nM |
| CC(C)(C)S(=O)(=O)Nc1ccc(-c2c(C(N)=O)c3cc(F)c(OC(F)F)cc3n2C2CCCCC2)cn1 [compound 1063, 2-{6-[(tert-butylsulfonyl)amino]pyridin-3-yl}-1-cyclohexyl-6-(difluoromethoxy)-5-fluoro-1H-indole-3-carboxamide] | 296 to 297 °C | < 500 nM |
| CC(C)(C)S(=O)(=O)Nc1ccc(-c2c(C#N)c3cc(F)c(OC(F)F)cc3n2C2CCCCC2)cn1 [compound 1065, N-{5-[3-cyano-1-cyclohexyl-6-(difluoromethoxy)-5-fluoro-1H-indol-2-yl]pyridin-2-yl}-2-methylpropane-2-sulfonamide] | 278 to 280 °C | < 500 nM |
